Some test systems named below: DLD-1; HOP-18; KM-20L2; LXFL 529; M19-MEL; SNB-78; XF498; DMS-114; RXF 631.
Common to all, as to assay: NCI-60 cell line screen, 48 h

From ChEMBL document CHEMBL1201862, “PubChem BioAssay data set” (2004) come the findings set out here.

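Interpolation was linear, between the two tested concentrations surrounding the appropriate level; five concentrations were tested over 48 hours in 96-well plates. Abbreviation: GI50, concentration required for 50% inhibition of growth.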 Calls of active or inactive are those of the source. No stated cut-off is given here; in the data, active = GI50 up to about 1.1 µM and inactive = higher.

Regarding `O=C1CC(c2ccccc2)=Nc2ccccc2N1`, the GI50 with DLD-1, in the test on HOP-18, in the test with KM-20L2, with LXFL 529, in the test with M19-MEL and in the test with SNB-78 was > 100 µM (inactive) in each case. Further, the GI50 with XF498 was > 100 µM (inactive).

For the compound `O=C1CC(CC(=O)C2CCCCC2=O)C(=O)N1` (configuration not stated), the GI50 with DLD-1, with DMS-114, in the test on HOP-18, in the test with KM-20L2, in the test on LXFL 529 and in the test on M19-MEL was > 100 µM (inactive) each time. The GI50 with SNB-78 and in the test with XF498 was > 100 µM (inactive) throughout.

Take `COc1ccc(-c2oc3c(OC)c(OC)c(OC)c(O)c3c(=O)c2OC)cc1O`: the GI50 is 0.432 µM (active) with DLD-1; 0.0277 µM (active) in the test with DMS-114; 12.1 µM (inactive) in the test on KM-20L2; 0.0582 µM (active) with LXFL 529; 0.346 µM (active) in the test on M19-MEL; 6.07 µM (inactive) in the test with RXF 631. Besides, the GI50 in the test with SNB-78 is 0.0735 µM (active); in the test on XF498 it was 0.279 µM (active).

For `COc1cc(/C=N/N=C(\N)NO)c(Cl)cc1O`, the GI50 in the test with DLD-1 was > 10 µM (inactive); in the test on DMS-114, 24.3 µM (inactive); in the test on LXFL 529 it was > 100 µM (inactive); with M19-MEL, 26.6 µM (inactive); with SNB-78, > 100 µM (inactive).

Take `COc1ccc(NC(=O)CC(=O)n2nc(-c3ccccc3)c(/N=N/c3ccccc3C)c2-c2ccccc2)cc1`: the GI50 with DLD-1 was 21.6 µM (inactive); in the test with DMS-114, 24.3 µM (inactive); in the test with HOP-18 it was 42.5 µM (inactive); in the test with KM-20L2, > 100 µM (inactive); with LXFL 529, 40 µM (inactive); with M19-MEL, 51.8 µM (inactive). For the same compound, the GI50 is 33.7 µM (inactive) in the test on RXF 631 and 19.3 µM (inactive) in the test on XF498.

On to `CC1=C(/C=C/C2=CC(=C\C(=O)O)/CC(C3=C(C)CCCC3(C)C)C2)C(C)(C)CCC1` (configuration not stated), for which the GI50 in the test on DLD-1 is 12.2 µM (inactive); in the test with DMS-114, 10.9 µM (inactive); in the test on HOP-18, 14 µM (inactive); with LXFL 529, 13.8 µM (inactive); with M19-MEL, 15.3 µM (inactive); in the test with RXF 631, 11.1 µM (inactive). Also, the GI50 was 20.7 µM (inactive) with SNB-78 and 14.4 µM (inactive) with XF498.

`Oc1ccncc1-c1cnccc1O`: the GI50 in the test on DLD-1, in the test with DMS-114, with HOP-18, in the test with LXFL 529, in the test with M19-MEL and in the test with SNB-78 was > 100 µM (inactive) in each case.

As to `C=C(COC(C)=O)CC(OC(C)=O)c1ccccc1` (configuration not stated), the GI50 with DLD-1, in the test with DMS-114, with KM-20L2, with LXFL 529, with M19-MEL and in the test on SNB-78 was > 100 µM (inactive) each time. The GI50 in the test on XF498 is > 100 µM (inactive).

Take `CCOC(=O)/C(=C/c1cc(OC)ccc1OC)CC(=O)O`: the GI50 in the test on DLD-1 is > 31.6 µM (inactive); in the test on DMS-114 it was > 100 µM (inactive); in the test on HOP-18, > 100 µM (inactive); in the test on KM-20L2, > 100 µM (inactive); in the test on LXFL 529, > 100 µM (inactive); in the test on M19-MEL it was > 100 µM (inactive). For the same compound, the GI50 was > 100 µM (inactive) in the test on RXF 631, > 100 µM (inactive) with SNB-78 and > 39.3 µM (inactive) in the test with XF498.

Regarding `[O-][S+]1CSSC1`, the GI50 was 18.7 µM (inactive) in the test with DLD-1; 4.98 µM (inactive) in the test on DMS-114; 51.4 µM (inactive) in the test on HOP-18; 22.8 µM (inactive) with KM-20L2; 13.5 µM (inactive) with LXFL 529; 2.05 µM (inactive) in the test on M19-MEL. For the same compound, the figures for the GI50 in the test on RXF 631, with SNB-78 and in the test with XF498 were 12.3 µM (inactive), 20.3 µM (inactive) and 15.7 µM (inactive), respectively.

On to `O=C1NC2(CCCC2)C2CCCCC12O` (configuration not stated), for which the GI50 with DLD-1, in the test on DMS-114, with HOP-18, in the test with LXFL 529, with M19-MEL and in the test on RXF 631 was > 100 µM (inactive) each time. Further, the GI50 in the test on SNB-78 and in the test on XF498 was > 100 µM (inactive) each time.

For the compound `CCOC(=O)N1C/C(=C\c2ccccc2)C(=O)/C(=C/c2ccccc2)C1`, the GI50 with DLD-1 is 2.56 µM (inactive); in the test with DMS-114, 3.27 µM (inactive); in the test on HOP-18, 20.3 µM (inactive); with KM-20L2, 7.71 µM (inactive); in the test with LXFL 529, 4.99 µM (inactive); in the test on M19-MEL, 1.57 µM (inactive). The GI50 with SNB-78 was 19.8 µM (inactive); in the test on XF498, 12.8 µM (inactive).

On to `N#CC(=C1C=CC(=NO)C=C1)c1ccc(Cl)cc1`, for which the GI50 was 14.2 µM (inactive) in the test with DLD-1; 15.4 µM (inactive) with DMS-114; 49 µM (inactive) in the test on HOP-18; 19.7 µM (inactive) in the test on KM-20L2; 4.97 µM (inactive) in the test with LXFL 529; 15 µM (inactive) in the test on M19-MEL.

`Cc1ccc(S(=O)(=O)N(/N=C(\N)Oc2ccc(Cl)cc2)C(=N)Oc2ccc(Cl)cc2)cc1`: the GI50 in the test with DLD-1, with DMS-114, with HOP-18, in the test on KM-20L2, in the test with LXFL 529 and in the test on M19-MEL was > 100 µM (inactive) in each case. Moreover, the GI50 in the test on SNB-78 and in the test with XF498 was > 100 µM (inactive) in each case.

Consider `C#CCN(Cc1ccc2nc(-c3ccccc3)c(N)nc2c1)c1cc(OC)c(OC)c(OC)c1`, for which the GI50 was 14 µM (inactive) in the test on DMS-114; 41.3 µM (inactive) in the test on KM-20L2; 19.3 µM (inactive) with LXFL 529; 27 µM (inactive) with M19-MEL; 22.9 µM (inactive) in the test on SNB-78; 30 µM (inactive) in the test on XF498.

Consider `Cc1ccc(S(=O)(=O)c2ccc(C)cc2[N+](=O)[O-])c([N+](=O)[O-])c1`, for which the GI50 in the test on DMS-114, in the test with KM-20L2, in the test with LXFL 529, with M19-MEL, in the test on SNB-78 and in the test on XF498 was > 100 µM (inactive) in each case.

Consider `O=C1NC(=S)NC(=O)C1=Cc1ccc([N+](=O)[O-])o1`, for which the GI50 was 16 µM (inactive) in the test with DLD-1; 17.8 µM (inactive) in the test with DMS-114; 20.7 µM (inactive) in the test on HOP-18; 20.1 µM (inactive) in the test on KM-20L2; 16.5 µM (inactive) in the test with LXFL 529; 19.6 µM (inactive) in the test on M19-MEL. The GI50 in the test on RXF 631 was 19.3 µM (inactive); in the test on SNB-78, 23.5 µM (inactive); in the test with XF498, 31.6 µM (inactive).

`O=[N+]([O-])c1ccc(/C=C/c2csnn2)cc1`: the GI50 with DLD-1, in the test with DMS-114, in the test on HOP-18, in the test on LXFL 529, in the test on M19-MEL and in the test with SNB-78 was > 100 µM (inactive) each time.

With `CC1(C)CC(N2CCN(C3CC(C)(C)NC(C)(C)C3)CC2)CC(C)(C)N1`, the GI50 with DLD-1, with DMS-114, with HOP-18, in the test on KM-20L2, in the test on LXFL 529 and in the test with RXF 631 was > 100 µM (inactive) throughout. The GI50 in the test on SNB-78 and with XF498 was > 100 µM (inactive) each time.

For the compound `COc1cc2c3cc1Oc1c(OC)c(OC)cc4c1[C@@H](Cc1ccc(O)c(c1)Oc1ccc(cc1)C[C@@H]3N(C)CC2)N(C)CC4.c1ccccc1`, the GI50 in the test on DLD-1 was 19.1 µM (inactive); with KM-20L2, 5.32 µM (inactive); in the test with LXFL 529 it was 12.4 µM (inactive); with M19-MEL it was 13.4 µM (inactive); in the test on SNB-78 it was 47.1 µM (inactive); with XF498, 11.4 µM (inactive).

`C/C(=C\Cc1cc(O)ccc1O)CCc1c(C)cc(O)c(C=O)c1C` [PANICEIN B3]: the GI50 in the test on DLD-1 is 21.6 µM (inactive); with DMS-114, 14.7 µM (inactive); with HOP-18, 17.8 µM (inactive); in the test on KM-20L2, 39.9 µM (inactive); in the test with LXFL 529, 15.4 µM (inactive); with XF498, 18.8 µM (inactive).
